# Measured values: patent publication US4066753A, “Neomycin and paromomycin derivatives” (Canadian Patents and Development Limited, priority 1976, dated 1978)
# Where two headings read alike, the source gives them in different places.
# Assays:
# E. coli B1002 = test: IN VITRO antibacterial activity against resistant organisms, E. coli B1002; type: cell-based
# Procedure: (§1) In the Tables above MIC stands for minimum inhibitory concentration and
# (§2) the results were obtained by providing halving dilutions of the test
# (§3) compound in nutrient broth (concentrations usually range from 1/10,000 to
# (§4) 1/320,000). These solutions are inoculated with the test organism,
# (§5) incubated for 24 hours at 37° C and then examined for the presence
# (§6) of growth. A test compound found to have a minimum inhibitory
# (§7) concentration (MIC) of 1/160,000 is generally considered as a lead.
# P. aeruginosa 377 = test: IN VITRO antibacterial activity against resistant organisms, P. aeruginosa 377; type: cell-based
# Procedure: as §1, §2, §3, §4, §5, §6, §7
# E. coli B989 = test: IN VITRO antibacterial activity against resistant organisms, E. coli B989; type: cell-based; conditions: resistant organism E. coli B989, nutrient broth, 24 hours at 37° C
# Procedure: as §1, §2, §3, §4, §5, §6, §7
# P. aeruginosa 87442 = test: IN VITRO antibacterial activity against resistant organisms, P. aeruginosa 87442; type: cell-based
# Procedure: as §1, §2, §3, §4, §5, §6, §7
# P. mirabilis = test: IN VITRO antibacterial activity, P. mirabilis; type: cell-based; conditions: Proteus mirabilis
# Procedure: as §1, §2, §3, §4, §5, §6, §7
# S. marcesceus = test: IN VITRO antibacterial activity, S. marcesceus; type: cell-based
# Procedure: as §1, §2, §3, §4, §5, §6, §7
# S. pyogenes S = test: IN VITRO antibacterial activity, S. pyogenes S; type: cell-based; conditions: Streptococcus pyogenes
# Procedure: as §1, §2, §3, §4, §5, §6, §7
# K. pneumoniae = test: IN VITRO antibacterial activity, K. pneumoniae; type: cell-based; conditions: Klebsiella pneumoniae
# Procedure: as §1, §2, §3, §4, §5, §6, §7
# [1] = tested on: strains of P. Aeruginosa resistant to neomycin B and paromomycin I; test: Antibacterial activity against resistant P. Aeruginosa; type: cell-based
# Procedure: as §1, §2, §3, §4, §5, §6, §7
# P. aeruginosa = test: IN VITRO antibacterial activity, P. aeruginosa; type: cell-based; conditions: Pseudomonas aeruginosa
# Procedure: as §1, §2, §3, §4, §5, §6, §7
# E. coli B996 = test: IN VITRO antibacterial activity, E. coli B996 (resistant to Kanamycin and paromomycin); type: cell-based; conditions: Escherichia coli, nutrient broth, 24 hours at 37° C
# Procedure: as §1, §2, §3, §4, §5, §6, §7
# S. fecalis = test: IN VITRO antibacterial activity, S. fecalis; type: cell-based
# Procedure: as §1, §2, §3, §4, §5, §6, §7
# S. pyogenes R = test: IN VITRO antibacterial activity, S. pyogenes R; type: cell-based; conditions: Streptococcus pyogenes
# Procedure: as §1, §2, §3, §4, §5, §6, §7
# [2] = tested on: strains of E. Coli resistant to neomycin and paromomycin; test: Antibacterial activity against resistant E. Coli; type: cell-based
# Procedure: as §1, §2, §3, §4, §5, §6, §7
# E. coli 198 = test: IN VITRO antibacterial activity, E. coli 198; type: cell-based
# Procedure: as §1, §2, §3, §4, §5, §6, §7
# A. aerogenes = test: IN VITRO antibacterial activity, A. aerogenes; type: cell-based; conditions: Klebsiella aerogenes
# Procedure: as §1, §2, §3, §4, §5, §6, §7
# S. pullorm = test: IN VITRO antibacterial activity, S. pullorm; type: cell-based
# Procedure: as §1, §2, §3, §4, §5, §6, §7
# P. aeruginosa 359 = test: IN VITRO antibacterial activity, P. aeruginosa 359; type: cell-based
# Procedure: as §1, §2, §3, §4, §5, §6, §7
# E. Coli 198 (ATCC 1/229) = test: IN VITRO antibacterial activity, E. Coli 198 (ATCC 1/229); type: cell-based; conditions: Escherichia coli
# Procedure: as §1, §2, §3, §4, §5, §6, §7
# A. aerogenes 357 = test: IN VITRO antibacterial activity, A. aerogenes 357; type: cell-based
# Procedure: as §1, §2, §3, §4, §5, §6, §7
# S. pyogenes S B352 = test: IN VITRO antibacterial activity, S. pyogenes S B352; type: cell-based; conditions: Streptococcus pyogenes
# Procedure: as §1, §2, §3, §4, §5, §6, §7
# Pr. mirabilis 360 = test: IN VITRO antibacterial activity, Pr. mirabilis 360; type: cell-based
# Procedure: as §1, §2, §3, §4, §5, §6, §7
# Pr. vulgaris 316 = test: IN VITRO antibacterial activity, Pr. vulgaris 316; type: cell-based
# Procedure: as §1, §2, §3, §4, §5, §6, §7
# S. pullorum 358 = test: IN VITRO antibacterial activity, S. pullorum 358; type: cell-based; conditions: Salmonella enterica
# Procedure: as §1, §2, §3, §4, §5, §6, §7
# S. pyogenes R 353 = test: IN VITRO antibacterial activity, S. pyogenes R 353; type: cell-based; conditions: Streptococcus pyogenes
# Procedure: as §1, §2, §3, §4, §5, §6, §7
# S. fecalis 353 = test: IN VITRO antibacterial activity, S. fecalis 353; type: cell-based
# Procedure: as §1, §2, §3, §4, §5, §6, §7
# [3] = tested on: Kl. pneumoniae 855 (ATCC 10081); test: IN VITRO antibacterial activity, Kl. pneumoniae 855 (ATCC 10081); type: cell-based; conditions: Klebsiella pneumoniae, ATCC10081, nutrient broth, 24 hours at 37° C
# Procedure: as §1, §2, §3, §4, §5, §6, §7
# [4] = tested on: S. marcesceus 854 (ATCC → 103); test: IN VITRO antibacterial activity, S. marcesceus 854 (ATCC → 103); type: cell-based
# Procedure: as §1, §2, §3, §4, §5, §6, §7
# in vivo = conditions: mouse, iv, in mice (i.v), acute toxicity
# [5] = Escherichia coli, resistant organism E. coli B1002, nutrient broth, 24 hours at 37° C, read-out: MIC
# [6] = Pseudomonas aeruginosa, resistant organism P. aeruginosa 377, nutrient broth, 24 hours at 37° C, read-out: MIC
# [7] = Escherichia coli, read-out: MIC
# [8] = Pseudomonas aeruginosa, resistant organism P. aeruginosa 87442, nutrient broth, 24 hours at 37° C, read-out: MIC
compound,measurement,setting,value
NC[C@@H]1O[C@H](O[C@H]2[C@@H](O)[C@H](O[C@@H]3[C@@H](O)[C@H](N)C[C@H](N)[C@H]3O[C@H]3O[C@H](CN)[C@@H](O)[C@H](O)[C@H]3N)O[C@@H]2CO)[C@H](N)[C@@H](O)[C@@H]1O [Neomycin],MIC,E. coli B1002; [5],50 µg/mL
same,MIC,P. aeruginosa 377; [6],0.4 µg/mL
same,MIC,E. coli B989; [7],1.6 µg/mL
same,MIC,P. aeruginosa 87442; [8],< 0.2 µg/mL
"NC[C@@H]1O[C@H](O[C@H]2[C@@H](O)[C@H](O[C@@H]3[C@@H](O)[C@H](N)C[C@H](N)[C@H]3O[C@H]3O[C@H](CO)[C@@H](O)[C@H](O)[C@H]3N)O[C@@H]2CN)[C@H](N)[C@@H](O)[C@@H]1O [5""-amino-5""-deoxyparomomycin I]",MIC,"P. mirabilis; P. mirabilis, nutrient broth, 24 hours at 37° C, read-out: MIC",1.6 µg/mL
same,MIC,"S. marcesceus; S. marcesceus, nutrient broth, 24 hours at 37° C, read-out: MIC",0.8 µg/mL
same,MIC,"S. pyogenes S; S. pyogenes S, nutrient broth, 24 hours at 37° C, read-out: MIC",< 0.2 µg/mL
same,MIC,"K. pneumoniae; K. pneumoniae, nutrient broth, 24 hours at 37° C, read-out: MIC",0.8 µg/mL
same,antibacterial activity against resistant P. Aeruginosa,[1],particularly effective
same,MIC,"P. aeruginosa; P. aeruginosa, nutrient broth, 24 hours at 37° C, read-out: MIC",12.5 µg/mL
same,MIC,E. coli B996,12.5 µg/mL
same,MIC,"S. fecalis; S. fecalis, nutrient broth, 24 hours at 37° C, read-out: MIC",6.4 µg/mL
same,MIC,"S. pyogenes R; S. pyogenes R, nutrient broth, 24 hours at 37° C, read-out: MIC",0.4 µg/mL
same,antibacterial activity against resistant E. Coli,[2],particularly effective
same,MIC,"E. coli 198; Escherichia coli, E. coli 198, nutrient broth, 24 hours at 37° C, read-out: MIC",6.4 µg/mL
same,MIC,"A. aerogenes; A. aerogenes, nutrient broth, 24 hours at 37° C, read-out: MIC",1.6 µg/mL
same,MIC,"S. pullorm; S. pullorm, nutrient broth, 24 hours at 37° C, read-out: MIC",0.8 µg/mL
NC[C@H]1O[C@H](O[C@H]2[C@H](O)[C@@H](O[C@H]3O[C@H](CO)[C@@H](O)[C@H](N)[C@H]3O)[C@H](N)C[C@@H]2N)[C@H](O)[C@@H](O)[C@@H]1O [Kanamycin],MIC,"E. coli B1002; Escherichia coli, B1002, 24 h",< 100 µg/mL
same,MIC,"P. aeruginosa 377; Pseudomonas aeruginosa, 377, 24 h",3.2 µg/mL
same,MIC,E. coli B989; [7],100 µg/mL
same,MIC,"P. aeruginosa 87442; Pseudomonas aeruginosa, 87442, 24 h",0.8 µg/mL
Gentamycin,MIC,"E. coli B1002; resistant organism E. coli B1002, nutrient broth, 24 hours at 37° C",< 0.2 µg/mL
same,MIC,"P. aeruginosa 377; resistant organism P. aeruginosa 377, nutrient broth, 24 hours at 37° C",< 0.2 µg/mL
same,MIC,E. coli B989,< 0.2 µg/mL
same,MIC,"P. aeruginosa 87442; resistant organism P. aeruginosa 87442, nutrient broth, 24 hours at 37° C",< 0.2 µg/mL
"NC[C@@H]1O[C@H](O[C@H]2[C@@H](O)[C@H](O[C@@H]3[C@@H](O)[C@H](N)C[C@H](N)[C@H]3O[C@H]3O[C@H](CN)[C@@H](O)[C@H](O)[C@H]3N)O[C@@H]2CO)[C@H](N)[C@@H](O)[C@@H]1O [Neomycin B, neomycin B]",MIC,"P. aeruginosa 359; Pseudomonas aeruginosa, 359, 24 h",0.8 µg/mL
same,MIC,"E. Coli 198 (ATCC 1/229); ATCC1, 24 h",0.8 µg/mL
same,MIC,"A. aerogenes 357; Klebsiella aerogenes, 357, 24 h",< 0.2 µg/mL
same,MIC,"S. pyogenes S B352; SB352, 24 h",< 0.2 µg/mL
same,MIC,"Pr. mirabilis 360; Proteus mirabilis, 360, 24 h",0.4 µg/mL
same,MIC,"Pr. vulgaris 316; Proteus vulgaris, 316, 24 h",< 0.2 µg/mL
same,MIC,"S. pullorum 358; PULLORUM, 24 h",< 0.2 µg/mL
same,MIC,"S. pyogenes R 353; R353, 24 h",< 0.2 µg/mL
same,MIC,S. fecalis 353; 24 h,0.8 µg/mL
same,MIC,[3],< 0.2 µg/mL
same,MIC,[4]; 24 h,< 0.2 µg/mL
NC[C@@H]1O[C@H](O[C@H]2[C@@H](O)[C@H](O[C@@H]3[C@@H](O)[C@H](N)C[C@H](N)[C@H]3O[C@H]3O[C@H](CO)[C@@H](O)[C@H](O)[C@H]3N)O[C@@H]2CO)[C@H](N)[C@@H](O)[C@@H]1O [Paromomycin],MIC,P. mirabilis; 24 h,> 0.2 µg/mL
same,MIC,S. marcesceus; 24 h,0.4 µg/mL
same,MIC,S. pyogenes S; 24 h,< 0.2 µg/mL
same,MIC,K. pneumoniae; 24 h,> 0.2 µg/mL
same,MIC,P. aeruginosa; 24 h,0.8 µg/mL
same,MIC,E. coli B996,> 100 µg/mL
same,MIC,S. fecalis; 24 h,1.6 µg/mL
same,MIC,S. pyogenes R; 24 h,< 0.2 µg/mL
same,MIC,"E. coli 198; Escherichia coli, 198, 24 h",0.4 µg/mL
same,MIC,A. aerogenes; 24 h,> 0.2 µg/mL
same,MIC,S. pullorm; 24 h,> 0.2 µg/mL
"NC[C@@H]1O[C@H](O[C@H]2[C@@H](O)[C@H](O[C@@H]3[C@@H](O)[C@H](N)C[C@H](N)[C@H]3O[C@H]3O[C@H](CN)[C@@H](O)[C@H](O)[C@H]3N)O[C@@H]2CN)[C@H](N)[C@@H](O)[C@@H]1O [5""-Amino-5""-deoxyneomycin B, 5""-amino-5""-deoxyneomycin B]",MIC,E. coli B1002; [5],3.2 µg/mL
same,MIC,P. aeruginosa 377; [6],1.6 µg/mL
same,MIC,"P. aeruginosa 359; Pseudomonas aeruginosa, P. aeruginosa 359, nutrient broth, 24 hours at 37° C, read-out: MIC",1.6 µg/mL
same,MIC,"E. Coli 198 (ATCC 1/229); ATCC1, E. Coli 198 (ATCC 1/229), nutrient broth, 24 hours at 37° C, read-out: MIC",0.8 µg/mL
same,MIC,"A. aerogenes 357; Klebsiella aerogenes, A. aerogenes 357, nutrient broth, 24 hours at 37° C, read-out: MIC",0.8 µg/mL
same,MIC,"S. pyogenes S B352; SB352, S. pyogenes S B352, nutrient broth, 24 hours at 37° C, read-out: MIC",< 0.1 µg/mL
same,MIC,"Pr. mirabilis 360; Proteus mirabilis, Pr. mirabilis 360, nutrient broth, 24 hours at 37° C, read-out: MIC",0.8 µg/mL
same,MIC,E. coli B989; [7],1.6 µg/mL
same,MIC,"Pr. vulgaris 316; Proteus vulgaris, Pr. vulgaris 316, nutrient broth, 24 hours at 37° C, read-out: MIC",0.8 µg/mL
same,MIC,P. aeruginosa 87442; [8],0.8 µg/mL
same,MIC,"S. pullorum 358; S. pullorum 358, nutrient broth, 24 hours at 37° C, read-out: MIC",0.4 µg/mL
same,MIC,"S. pyogenes R 353; R353, S. pyogenes R 353, nutrient broth, 24 hours at 37° C, read-out: MIC",< 0.1 µg/mL
same,antibacterial activity against resistant P. Aeruginosa,[1],particularly effective
same,MIC,"S. fecalis 353; S. fecalis 353, nutrient broth, 24 hours at 37° C, read-out: MIC",0.8 µg/mL
same,MIC,[3],0.4 µg/mL
same,MIC,"[4]; S. marcesceus 854 (ATCC → 103), nutrient broth, 24 hours at 37° C, read-out: MIC",0.4 µg/mL
same,LD50,in vivo,60 to 80 mg/kg
same,antibacterial activity against resistant E. Coli,[2],particularly effective
